Results taken from patent US20210353633A1, “CYCLODEXTRIN-BASED FORMULATION OF A BCL-2 INHIBITOR” (LES LABORATOIRES SERVIER, priority 2018, published 2021).
Converted amounts (≈) assume the structure as drawn. Like-named read-outs stand apart in the source and are kept apart here.

Assays:
[1] = Aqueous solubility of Compound A; assay type: physicochemical; conditions: aqueous buffer
Description: In order to enable safe and effective administration of Compound A, and to elicit the required therapeutic effects, Compound A needs to be solubilized at higher concentration than its aqueous solubility.

[2] = Solubility test in various carriers (Example 1); assay type: physicochemical; conditions: thermodynamic from solid; for solubility at 2 h: read-out: Solubility after 2 h
Method: The solubility of ‘Compound A, H2SO4’ was studied in various media, including: • citrate buffer (pH=2; 50 mM), acetate buffer (pH=4; 50 mM) and phosphate buffer (pH=6-7.4; 67.7 mM); • cyclodextrins of the type sulfobutyl ether β-cyclodextrin (SBE-β-cyclodextrin) or hydroxypropyl β-cyclodextrin (HP-β-cyclodextrin); more precisely, the SBE-β-cyclodextrin tested is Dexsolve™ marketed by Cyclolab, while the HP-β-cyclodextrins tested are Cavitron™ W7HP7 and Cavitron™ W7HP5 marketed by Wacker; Kleptose™ HP and Kleptose™ HPB marketed by Roquette; • surfactants such as polysorbate 80 and Kolliphor™ ELP; • the mixture PEG400/ethanol/0.9% NaCl (40/10/50).
5 g of the cyclodextrin studied (Dexsolve™, Cavitron™ W7HP7, Cavitron™ W7HP5, Kleptose™ HP or Kleptose™ HPB) are weighed into a […] graduated flask. Approximately 15 mL of water are added and the whole obtained is subjected to magnetic stirring. The volume is then made up to 25 mL by the addition of water. The whole is placed under magnetic stirring for 10 minutes.
1 g of the surfactant studied is weighed into a 50 mL graduated flask. The volume is then made up to 50 mL by means of 0.9% NaCl solution. The whole is placed under magnetic stirring for 1 hour.
20 mL of PEG 400, 5 mL of ethanol and 25 mL of NaCl are taken. The whole is placed in a 100 mL Erlenmeyer flask and stirred magnetically for 30 minutes.
Approximately 340 mg of ‘Compound A, H2SO4’ are weighed into a 5 mL tube. 3 mL of the medium containing the carrier to be tested are then added. The whole is then placed under magnetic stirring for 2 hours or 24 hours. The suspension or solution so obtained is passed through a 0.2 μm filter (PVDF membrane—Millipore) before being analysed by HPLC. In addition, the presence of degradation products of Compound A was investigated in the samples stored for 72 hours at ambient temperature.

[3] = Physical and chemical stability over time of solutions diluted in G5; assay type: physicochemical; conditions: 12, 20 and 1000 mg/250 mL of G5
Method: Moreover, studies of physical stability over time (24 h, 48 h and 72 h) are carried out on the solutions obtained hereinbefore. In particular, these studies include the particle count of the tested solutions in accordance with the method described in the text of the European Pharmacopoeia 2.9.19. Tests 1.B (i.e. counting of the sub-visible particles by light obscuration).
Studies of chemical stability over time (24 h, 48 h and 72 h) are also put in place in order to ensure the stability of the product under laboratory light (1500 lux) and various heat conditions (ambient temperature, 5° C.). These studies include especially measurements of the amount of active ingredient and degradation products. Pharmaceutical compositions of Compound A solubilised by means of a Cavitron™ W7H5 solution diluted in G5 solution were tested for the following concentrations: 12 mg/250 mL, 20 mg/250 mL and 1000 mg/250 mL of G5 solution.

[4] = system: RS4;11; test: Efficacy in RS4;11 xenograft model in mice; assay type: in vivo; conditions: day 21, 20% HP-β-cyclodextrin solution
Method: The in vivo therapeutic effect of Compound A formulated in a solution comprising 20% of a HP-β-cyclodextrin w/v, was determined in the RS4;11 model after intravenous administration.
RS4;11 cell line, obtained from ATCC, were subcutaneously injected into female SCID mice, provided by Charles River. When tumors reached the appropriate tumor volume, mice were randomized using Easy stat software. Compound A (15 mg/kg or 40 mg/kg expressed as free base) was injected i.v. once a week over two weeks.
In a 100 mL flask, introduce 20 g of Cavitron™ W7HP5 and add around 75 mL of a solution water/0.9% NaCl (70/30, v/v). Stir for 15 minutes at room temperature. Then, make up the solution to a volume of 100 mL by adding the previous solution water/0.9% NaCl, while maintaining magnetic stirring. Weigh the necessary amount of ‘Compound A, H2SO4’ and dissolve it with the previous 20% w/v Cavitron™ W7H5 solution. Heat the whole at 60° C. under vigorous magnetic stirring until solubilisation of the components of the mixture is complete. Measure the pH of the solution obtained. […]
Mice were monitored for tumor development and body weight three times a week and tumor size was measured using electronic calipers. […] The last day with all control animals still present in the study, tumor growth inhibition was calculated using the formula: […]
wherein ‘DTV (Delta Tumor Volume) at Dx’ is calculated as follows: […]

[5] = PK parameters in RS4;11 grafted female SCID mice; assay type: in vivo; conditions: for Cmax / concentration at 6 h / AUC / half-life / AUC(0-t): female, SCID, mouse, blood; for Cmax / AUC / half-life / AUC(0-t): iv; for AUCt/Dose / Co / tlast / concentration at 6 h / AUC / half-life / AUC(0-t): one i.v. treatment; for Co / tlast / concentration at 6 h / AUC / half-life: 20% HP-β-cyclodextrin solution; for concentration at 6 h: intravenous, read-out: Clast; for half-life: read-out: t1/2, z (converted); for AUC(0-t): administration to the last point
Method: RS4;11 cell line, obtained from ATCC, were subcutaneously injected into female SCID mice, provided by Charles River. When tumors reached the appropriate tumor volume, mice were randomized using Easy stat software. […]
In a 100 mL flask, introduce 20 g of Cavitron™ W7HP5 and add around 75 mL of a solution water/0.9% NaCl (70/30, v/v). Stir for 15 minutes at room temperature. Then, make up the solution to a volume of 100 mL by adding the previous solution water/0.9% NaCl, while maintaining magnetic stirring. Weigh the necessary amount of ‘Compound A, H2SO4’ and dissolve it with the previous 20% w/v Cavitron™ W7H5 solution. Heat the whole at 60° C. under vigorous magnetic stirring until solubilisation of the components of the mixture is complete. Measure the pH of the solution obtained. Adjust the pH to 3 by adding drop by drop, either HCl 0.1N or NaOH 0.1N, depending on the concentration of Compound A. Stir the mixture at least for 1 hour. Filtrate the obtained solution with a 0.2 μm-filter.
A 20% w/v Cavitron™ W7H5 solution containing a dose of 4 mg/mL of Compound A was prepared following this procedure. A second solution containing a dose of 1.5 mg/mL of Compound A was also prepared by diluting further the previous solution with the 20% w/v Cavitron™ W7H5 solution.

SMILES: Cc1c(N(C(=O)c2cc(-c3cc(Cl)ccc3C(=O)N3Cc4ccccc4C[C@H]3CN3CCOCC3)n(C)c2C)c2ccc(O)cc2)cc(C#N)n1C [Compound A, 5-(5-chloro-2-{[(3S)-3-(morpholin-4-ylmethyl)-3,4-dihydroisoquinolin-2(1H)-yl]carbonyl}phenyl)-N-(5-cyano-1,2-dimethyl-1H-pyrrol-3-yl)-N-(4-hydroxyphenyl)-1,2-dimethyl-1H-pyrrole-3-carboxamide]
- solubility ([1]; aqueous media, free base, across all pHs): < 10 µg/mL
- solubility at 24 h ([2]; aqueous with cosolvent or surfactant or cyclodextrin, in the carriers permitting substantial solubilisation (cyclodextrins, PEG400, PEG400/EtOH/0.9% NaCl), read-out: solubilities after 24 hours' stirring): 10000 to 30000 µg/mL (≈ 13.9 to 41.8 mM)
- chemical degradation product ([3]; laboratory light (1500 lux), ambient temperature and 5° C., during 72 h): No significant chemical degradation product was observed
- rate of sub-visible particles (light obscuration method) ([3]; up to 72 h): in accordance with the requirement of the European Pharmacopoeia 2.9.19
- tumor growth inhibition ([4]; 15 mg/kg i.v. once a week for 2 weeks): 57.83%
- tumor growth inhibition ([4]; 40 mg/kg i.v. once a week for 2 weeks): 75.52%
- exposure ([5]; 15 mg/kg i.v.): 20463 ng·h/mL
- exposure ([5]; 40 mg/kg i.v.): 46509 ng·h/mL
- Cmax ([5]; 15 mg/kg i.v.): 14700 ng/mL
- Cmax ([5]; 40 mg/kg i.v.): 23300 ng/mL

SMILES: Cc1c(N(C(=O)c2cc(-c3cc(Cl)ccc3C(=O)N3Cc4ccccc4C[C@H]3CN3CCOCC3)n(C)c2C)c2ccc(O)cc2)cc(C#N)n1C [Compound A, H2SO4, 5-(5-chloro-2-{[(3S)-3-(morpholin-4-ylmethyl)-3,4-dihydroisoquinolin-2(1H)-yl]carbonyl}phenyl)-N-(5-cyano-1,2-dimethyl-1H-pyrrol-3-yl)-N-(4-hydroxyphenyl)-1,2-dimethyl-1H-pyrrole-3-carboxamide]
- solubility ([1]; aqueous medium, at pH=2.5): 1400 µg/mL (≈ 1.95 mM)
- solubility at 2 h ([2]; 2% Kolliphor ELP solution, aqueous with cosolvent or surfactant or cyclodextrin, carrier: 2% Kolliphor ELP): 2080 µg/mL (≈ 2.9 mM)
- solubility at 24 h ([2]; 2% Kolliphor ELP solution, aqueous with cosolvent or surfactant or cyclodextrin, carrier: 2% Kolliphor ELP, read-out: Solubility after 24 h): 1740 µg/mL (≈ 2.43 mM)
- solubility at 2 h ([2]; 2% Polysorbate 80 solution, aqueous with cosolvent or surfactant or cyclodextrin, carrier: 2% Polysorbate 80): 2300 µg/mL (≈ 3.21 mM)
- solubility at 24 h ([2]; 2% Polysorbate 80 solution, aqueous with cosolvent or surfactant or cyclodextrin, carrier: 2% Polysorbate 80, read-out: Solubility after 24 h): 1960 µg/mL (≈ 2.73 mM)
- solubility at 2 h ([2]; aqueous buffer, carrier: Acetate buffer (pH=4; 50 mM)): 200 µg/mL (≈ 0.279 mM)
- solubility at 24 h ([2]; aqueous buffer, carrier: Acetate buffer (pH=4; 50 mM), read-out: Solubility after 24 h): 180 µg/mL (≈ 0.251 mM)
- solubility at 2 h ([2]; aqueous buffer, carrier: Citrate buffer (pH=2; 50 mM)): 240 µg/mL (≈ 0.335 mM)
- solubility at 24 h ([2]; aqueous buffer, carrier: Citrate buffer (pH=2; 50 mM), read-out: Solubility after 24 h): 250 µg/mL (≈ 0.349 mM)
- solubility at 2 h ([2]; aqueous buffer, carrier: Phosphate buffer (pH=6-7.4; 67.7 mM)): 210 µg/mL (≈ 0.293 mM)
- solubility at 24 h ([2]; aqueous buffer, carrier: Phosphate buffer (pH=6-7.4; 67.7 mM), read-out: Solubility after 24 h): 520 µg/mL (≈ 0.725 mM)
- solubility at 2 h ([2]; aqueous with cosolvent or surfactant or cyclodextrin, carrier: Cavitron W7HP5, 20% by weight cyclodextrin solution): 25200 µg/mL (≈ 35.1 mM)
- solubility at 24 h ([2]; aqueous with cosolvent or surfactant or cyclodextrin, carrier: Cavitron W7HP5, 20% by weight cyclodextrin solution, read-out: Solubility after 24 h): 30200 µg/mL (≈ 42.1 mM)
- solubility at 2 h ([2]; aqueous with cosolvent or surfactant or cyclodextrin, carrier: Cavitron W7HP7, 20% by weight cyclodextrin solution): 17900 µg/mL (≈ 24.9 mM)
- solubility at 24 h ([2]; aqueous with cosolvent or surfactant or cyclodextrin, carrier: Cavitron W7HP7, 20% by weight cyclodextrin solution, read-out: Solubility after 24 h): 21200 µg/mL (≈ 29.5 mM)
- solubility at 2 h ([2]; aqueous with cosolvent or surfactant or cyclodextrin, carrier: Dexsolve, 20% by weight cyclodextrin solution): 23400 µg/mL (≈ 32.7 mM)
- solubility at 24 h ([2]; aqueous with cosolvent or surfactant or cyclodextrin, carrier: Dexsolve, 20% by weight cyclodextrin solution, read-out: Solubility after 24 h): 23200 µg/mL (≈ 32.3 mM)
- solubility at 24 h ([2]; aqueous with cosolvent or surfactant or cyclodextrin, carrier: Kleptose HP, 20% by weight cyclodextrin solution, read-out: Solubility after 24 h): 25000 to 26000 µg/mL (≈ 34.9 to 36.2 mM)
- solubility at 24 h ([2]; aqueous with cosolvent or surfactant or cyclodextrin, carrier: Kleptose HPB, 20% by weight cyclodextrin solution, read-out: Solubility after 24 h): 30000 to 31000 µg/mL (≈ 41.8 to 43.2 mM)
- solubility at 2 h ([2]; aqueous with cosolvent or surfactant or cyclodextrin, carrier: PEG400/EtOH/0.9% NaCl (40/10/50)): 10300 µg/mL (≈ 14.4 mM)
- solubility at 24 h ([2]; aqueous with cosolvent or surfactant or cyclodextrin, carrier: PEG400/EtOH/0.9% NaCl (40/10/50), read-out: Solubility after 24 h): 10800 µg/mL (≈ 15 mM)
- solubility at 2 h ([2]; organic solvent or mixture, carrier: Absolute ethanol): 1060 µg/mL (≈ 1.48 mM)
- solubility at 24 h ([2]; organic solvent or mixture, carrier: Absolute ethanol, read-out: Solubility after 24 h): 1130 µg/mL (≈ 1.58 mM)
- solubility at 2 h ([2]; organic solvent or mixture, carrier: PEG 400): 11700 µg/mL (≈ 16.3 mM)
- solubility at 24 h ([2]; organic solvent or mixture, carrier: PEG 400, read-out: Solubility after 24 h): 11200 µg/mL (≈ 15.6 mM)
- solubility at 2 h ([2]; carrier: Water): 2870 µg/mL (≈ 4 mM)
- solubility at 24 h ([2]; carrier: Water, read-out: Solubility after 24 h): 1560 µg/mL (≈ 2.17 mM)
- AUCt/Dose ([5]; 15 mg/kg): 1360 ng·h/mL per mg/kg
- Co ([5]; 15 mg/kg): 14692 ng/mL
- tlast ([5]; 15 mg/kg): 6 h
- AUCt/Dose ([5]; 40 mg/kg): 1140 ng·h/mL per mg/kg
- Co ([5]; 40 mg/kg): 23290 ng/mL
- tlast ([5]; 40 mg/kg): 6 h
- concentration at 6 h ([5]; 15 mg/kg): 58.4 ng/mL
- concentration at 6 h ([5]; 40 mg/kg): 457 ng/mL
- AUC ([5]; 15 mg/kg): 20500 ng·h/mL
- half-life ([5]; 15 mg/kg): 45.6 min
- AUC ([5]; 40 mg/kg): 46500 ng·h/mL
- half-life ([5]; 40 mg/kg): 66 min
- AUC(0-t) ([5]; 15 mg/kg): 20400 ng·h/mL
- AUC(0-t) ([5]; 40 mg/kg): 45800 ng·h/mL
